{"source": "patent US10947274B1", "about": "(priority 2018, dated 2021)", "key": {"[1]": {"molecular_target": "α7 nAChR (Rattus norvegicus, UniProt Q05941)", "sequence (Q05941 23-502 limits assumed)": "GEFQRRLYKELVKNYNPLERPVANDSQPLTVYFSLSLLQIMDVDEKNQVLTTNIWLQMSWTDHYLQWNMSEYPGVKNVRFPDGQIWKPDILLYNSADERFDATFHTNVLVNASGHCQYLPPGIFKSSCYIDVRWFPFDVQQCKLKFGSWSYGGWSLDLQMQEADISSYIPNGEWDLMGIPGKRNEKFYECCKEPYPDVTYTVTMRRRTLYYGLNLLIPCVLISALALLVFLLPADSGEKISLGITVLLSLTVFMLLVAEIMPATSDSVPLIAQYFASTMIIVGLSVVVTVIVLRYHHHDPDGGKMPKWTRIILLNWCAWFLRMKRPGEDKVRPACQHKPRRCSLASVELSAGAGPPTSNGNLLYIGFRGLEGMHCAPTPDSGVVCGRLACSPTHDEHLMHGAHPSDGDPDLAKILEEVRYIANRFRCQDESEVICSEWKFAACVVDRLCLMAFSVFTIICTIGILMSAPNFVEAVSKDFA", "settings": "cited from earlier work"}, "[2]": {"molecular_target": "human α9α10 nicotinic acetylcholine receptor (nAChR) (human) (UniProt Q9UGM1)", "sequence (Q9UGM1 23-479, chain 1 of 2)": "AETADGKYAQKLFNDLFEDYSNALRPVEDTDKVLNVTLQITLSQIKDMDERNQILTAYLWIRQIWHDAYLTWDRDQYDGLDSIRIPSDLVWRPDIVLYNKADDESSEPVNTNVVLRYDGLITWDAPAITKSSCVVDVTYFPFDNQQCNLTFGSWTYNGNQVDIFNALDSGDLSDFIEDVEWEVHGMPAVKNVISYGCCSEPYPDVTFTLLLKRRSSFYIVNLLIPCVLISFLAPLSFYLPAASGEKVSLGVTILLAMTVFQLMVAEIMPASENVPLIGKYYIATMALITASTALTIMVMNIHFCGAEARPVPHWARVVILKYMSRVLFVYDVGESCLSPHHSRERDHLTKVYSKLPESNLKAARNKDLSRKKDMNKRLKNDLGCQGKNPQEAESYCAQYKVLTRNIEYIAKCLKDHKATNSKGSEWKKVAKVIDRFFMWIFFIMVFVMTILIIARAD", "sequence (Q9GZZ6 25-450, chain 2 of 2, further chain)": "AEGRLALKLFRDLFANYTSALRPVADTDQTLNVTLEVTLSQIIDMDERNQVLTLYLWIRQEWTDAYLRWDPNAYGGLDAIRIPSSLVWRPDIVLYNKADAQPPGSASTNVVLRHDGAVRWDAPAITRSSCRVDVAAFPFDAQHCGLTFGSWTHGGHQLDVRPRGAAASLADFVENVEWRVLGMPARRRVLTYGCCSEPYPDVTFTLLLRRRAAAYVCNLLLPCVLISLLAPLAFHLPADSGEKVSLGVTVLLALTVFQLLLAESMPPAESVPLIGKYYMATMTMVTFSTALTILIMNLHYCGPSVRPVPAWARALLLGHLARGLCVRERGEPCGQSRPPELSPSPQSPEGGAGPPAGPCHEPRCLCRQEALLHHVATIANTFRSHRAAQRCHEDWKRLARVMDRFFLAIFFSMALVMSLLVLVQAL", "experiment": "cell-based or functional assay"}, "[3]": {"type": "physicochemical"}}, "data": [{"substance": "α-conotoxin ImI", "values": [{"measurement": "IC50", "setting": "[1]", "value": "69.3 ± 15.5", "unit": "nM"}]}, {"substance": "[C3Pen;14R]RgIA5 (peptide)", "values": [{"measurement": "IC50 (nM), block of the acetylcholine response, voltage-clamped Xenopus oocytes", "setting": "[2]", "value": 0.5, "unit": "nM"}]}, {"substance": "GCCTDPRC(Cit)(I-3-Y)QCY [RgIA4]", "values": [{"measurement": "area under the curve, % of the total", "setting": "[3]; at 8 h", "value": 26.3, "unit": "%"}, {"measurement": "share of intact (globular) peptide over time", "setting": "[3]; pH 7.3", "value": "minority component"}]}]}
